Measurements as given in publication PMC12276029, “Structure−Activity Relationships of New 1‐Aryl‐1H‐Indole Derivatives as SARS‐CoV‐2 Nsp13 Inhibitors” (Chemmedchem, 2025).
Like-named read-outs stand apart in the source and are kept apart here.

Assays:
in vitro = conditions: African green monkey
HCoV229E = system: HCoV229E; set-up: method as in PMID 37562607; conditions: cited from earlier work
SARS-CoV-2 [1] = system: SARS-CoV-2; set-up: method as in PMID 37562607; conditions: cited from earlier work; for EC50: read-out: EC50 SARS-CoV-2 replication
SARS-CoV-2 nsp13 [2] = molecular target: T1, SARS-CoV-2 nsp13 (Severe acute respiratory syndrome coronavirus 2, UniProt P0DTD1); set-up: method as in PMID 37562607; conditions: SARS-CoV-2 nsp13 unwinding; cited from earlier work
Vero cells = system: Vero cells; set-up: method as in PMID 37562607; conditions: cited from earlier work
SARS-CoV-2 nsp13 [3] = molecular target: T1, SARS-CoV-2 nsp13; set-up: method as in PMID 37562607; conditions: SARS-CoV-2 nsp13 ATPase; cited from earlier work
MERS-CoV = conditions: cited from earlier work
SARS-CoV-2 nsp13 [4] = molecular target: T1, SARS-CoV-2 nsp13; test: SARS-CoV-2 nsp13 ATPase-associated activity assay; assay type: biochemical; conditions: for IC50 / Activity in enzyme assay IC50 ATPase BSA-TCEP: SARS-CoV-2 nsp13-associated ATPase activity, means ± SD from two experiments in triplicate; for IC50: read-out: Activity in enzyme assay IC50 ATPase BSA-TCEP; for remaining activity at 30 µM: given in brackets beside IC50 >30 μM, read-out: Percentage of enzymatic residual activity, ATPase
SARS-CoV-2 nsp13 [5] = molecular target: T1, SARS-CoV-2 nsp13; test: SARS-CoV-2 nsp13 unwinding-associated activity assay; assay type: biochemical; conditions: for IC50: SARS-CoV-2 nsp13-associated unwinding activity, means ± SD from two experiments in triplicate, read-out: Activity in enzyme assay IC50 Unwinding BSA-TCEP; for selectivity for unwinding over ATPase: IC50 ATPase vs IC50 unwinding; for remaining activity at 30 µM: given in brackets beside IC50 >30 μM, read-out: Percentage of enzymatic residual activity, unwinding
SARS-CoV-2 [6] = test: SARS-CoV-2 plaque assay in infected Vero E6 cells; assay type: cell-based; conditions: for EC50: Severe acute respiratory syndrome coronavirus 2, plaque assay, means ± SD, n = 9, read-out: EC50, concentration reducing SARS-CoV-2 replication in Vero cells by 50%
SARS-CoV-2 nsp13 [7] = molecular target: T1, SARS-CoV-2 nsp13; test: Mode-of-action assay (incubation-dependent potency, covalent/noncovalent); assay type: biochemical; conditions: for IC50: read-out: IC50 at time-point
SARS-CoV-2 [8] = conditions: read-out: EC50 antiviral activity; cited from earlier work
SARS-CoV-2 nsp13 [9] = molecular target: T1, SARS-CoV-2 nsp13; conditions: read-out: IC50 vs unwinding; cited from earlier work

CC[C@@]1(O)C(=O)OCc2c1cc1n(c2=O)Cc2cc3ccccc3nc2-1 [Camptothecin, reference compound]
CC50 (in vitro): 11.1 ± 0.16 µM

CCOC(=O)/C(O)=C/C(=O)/C=C/c1cn(-c2ccc(F)cc2)c2ccccc12 [Compound 3]
activity range on HCoV229E (HCoV229E): low micromolar
SI = CC50/EC50 (SARS-CoV-2 [1]): >16
EC50 (SARS-CoV-2 [1]): 16.1 ± 3.25 µM
IC50 (SARS-CoV-2 nsp13 [2]): 5.9 ± 0.3 µM
CC50 (Vero cells): > 264 µM
IC50 (SARS-CoV-2 nsp13 [3]): 13.6 ± 3.2 µM
activity range on MERS-CoV (MERS-CoV): submicromolar

O=C(/C=C(\O)C(=O)O)/C=C/c1cn(-c2ccc(F)cc2)c2ccccc12 [Compound 4]
activity range on HCoV229E (HCoV229E): low micromolar
EC50 (SARS-CoV-2 [1]): 1.7 µM
IC50 (SARS-CoV-2 nsp13 [2]): 4.7 µM
CC50 (Vero cells): > 264 µM
IC50 (SARS-CoV-2 nsp13 [3]): 8.2 µM
activity range on MERS-CoV (MERS-CoV): submicromolar

COc1ccc(-n2cc(/C=C/C(=O)/C=C(\O)C(=O)O)c3ccccc32)cc1 [Compound 5a]
IC50 (SARS-CoV-2 nsp13 [4]): 11.2 ± 1.37 µM
IC50 (SARS-CoV-2 nsp13 [5]): 2.83 ± 0.54 µM

Cc1ccc(-n2cc(/C=C/C(=O)/C=C(\O)C(=O)O)c3ccccc32)cc1 [Compound 5b]
IC50 (SARS-CoV-2 nsp13 [4]): 5.12 ± 0.38 µM
IC50 (SARS-CoV-2 nsp13 [5]): 11.7 ± 0.94 µM

CC(C)c1ccc(-n2cc(/C=C/C(=O)/C=C(\O)C(=O)O)c3ccccc32)cc1 [Compound 5c]
CC50 (in vitro): > 100 µM
IC50 (SARS-CoV-2 nsp13 [4]): 8.43 ± 0.04 µM
selectivity for unwinding over ATPase (SARS-CoV-2 nsp13 [5]): 70 fold
IC50 (SARS-CoV-2 nsp13 [5]): 0.26 ± 0.01 µM
SI = CC50/EC50 (SARS-CoV-2 [6]): >47
EC50 (SARS-CoV-2 [6]): 2.12 ± 0.67 µM

O=C(/C=C(\O)C(=O)O)/C=C/c1cn(-c2ccccc2)c2ccccc12 [Compound 5d]
IC50 (SARS-CoV-2 nsp13 [4]): 13.1 ± 0.37 µM
IC50 (SARS-CoV-2 nsp13 [5]): 11.8 ± 0.48 µM

O=C(/C=C(\O)C(=O)O)/C=C/c1cn(-c2ccc(Cl)cc2)c2ccccc12 [Compound 5f]
IC50 (SARS-CoV-2 nsp13 [4]): 20.95 ± 0.14 µM
IC50 (SARS-CoV-2 nsp13 [5]): 2.64 ± 0.61 µM

N#Cc1ccc(-n2cc(/C=C/C(=O)/C=C(\O)C(=O)O)c3ccccc32)cc1 [Compound 5g]
IC50 (SARS-CoV-2 nsp13 [4]): 13.6 ± 3.8 µM
IC50 (SARS-CoV-2 nsp13 [5]): 10 ± 2.07 µM

O=C(/C=C(\O)C(=O)O)/C=C/c1cn(-c2ccc(C(F)(F)F)cc2)c2ccccc12 [Compound 5h]
CC50 (in vitro): > 100 µM
IC50 (SARS-CoV-2 nsp13 [4]): 14.2 ± 1.6 µM
selectivity for unwinding over ATPase (SARS-CoV-2 nsp13 [5]): 30 fold
IC50 (SARS-CoV-2 nsp13 [5]): 0.21 ± 0.11 µM
SI = CC50/EC50 (SARS-CoV-2 [6]): >21
EC50 (SARS-CoV-2 [6]): 4.56 ± 1.86 µM

CCOC(=O)/C(O)=C/C(=O)/C=C/c1cn(-c2ccc(OC)cc2)c2ccccc12 [Compound 6a]
IC50 (SARS-CoV-2 nsp13 [4]): 10.4 ± 0.13 µM
IC50 (SARS-CoV-2 nsp13 [5]): 7.59 ± 1.5 µM

CCOC(=O)/C(O)=C/C(=O)/C=C/c1cn(-c2ccc(C)cc2)c2ccccc12 [Compound 6b]
IC50 (SARS-CoV-2 nsp13 [4]): 8.64 ± 0.77 µM
IC50 (SARS-CoV-2 nsp13 [5]): 13.9 ± 1.5 µM

CCOC(=O)/C(O)=C/C(=O)/C=C/c1cn(-c2ccc(C(C)C)cc2)c2ccccc12 [Compound 6c]
IC50 (SARS-CoV-2 nsp13 [4]): 13.5 ± 3.34 µM
IC50 (SARS-CoV-2 nsp13 [5]): 4.16 ± 0.44 µM

CCOC(=O)/C(O)=C/C(=O)/C=C/c1cn(-c2ccccc2)c2ccccc12 [Compound 6d]
IC50 (SARS-CoV-2 nsp13 [4]): 4.94 ± 0.21 µM
IC50 (SARS-CoV-2 nsp13 [5]): 3.77 ± 0.13 µM

CCOC(=O)/C(O)=C/C(=O)/C=C/c1cn(-c2ccc(Cl)cc2)c2ccccc12 [Compound 6f]
CC50 (in vitro): > 100 µM
IC50 (SARS-CoV-2 nsp13 [4]): 3.39 ± 0.11 µM
IC50 (SARS-CoV-2 nsp13 [5]): 2.05 ± 0.03 µM
SI = CC50/EC50 (SARS-CoV-2 [6]): >12
EC50 (SARS-CoV-2 [6]): 8 ± 2.19 µM

CCOC(=O)/C(O)=C/C(=O)/C=C/c1cn(-c2ccc(C#N)cc2)c2ccccc12 [Compound 6g]
CC50 (in vitro): > 100 µM
IC50 (SARS-CoV-2 nsp13 [4]): 2.35 ± 0.4 µM
IC50 (SARS-CoV-2 nsp13 [5]): 6.26 ± 0.65 µM
SI = CC50/EC50 (SARS-CoV-2 [6]): >8
EC50 (SARS-CoV-2 [6]): 11.8 ± 7.45 µM

CCOC(=O)/C(O)=C/C(=O)/C=C/c1cn(-c2ccc(C(F)(F)F)cc2)c2ccccc12 [Compound 6h]
CC50 (in vitro): > 100 µM
IC50 (SARS-CoV-2 nsp13 [7]; 1 min after the activation of the reaction): 0.3 µM
IC50 (SARS-CoV-2 nsp13 [7]; 5 min after the activation of the reaction): 0.48 µM
IC50 (SARS-CoV-2 nsp13 [7]; 10 min after the activation of the reaction): 0.79 µM
IC50 (SARS-CoV-2 nsp13 [7]; 15 min after the activation of the reaction): 1.06 µM
IC50 (SARS-CoV-2 nsp13 [7]; 20 min after the activation of the reaction): 1.31 µM
nature of the inhibition (SARS-CoV-2 nsp13 [7]; from time-increased IC50 values): noncovalent
effect of extended preincubation of compound and enzyme on potency (SARS-CoV-2 nsp13 [7]; preincubation +20 min and +50 min at room temperature): did not lead to increasing in inhibitory potency
IC50 (SARS-CoV-2 nsp13 [4]): 1.21 ± 0.16 µM
IC50 (SARS-CoV-2 nsp13 [5]): 3.11 ± 0.55 µM
SI = CC50/EC50 (SARS-CoV-2 [6]): >21
EC50 (SARS-CoV-2 [6]): 4.69 ± 1.8 µM

COc1ccc(-n2cc(C(=O)/C=C(\O)C(=O)O)c3ccccc32)cc1 [Compound 7a]
IC50 (SARS-CoV-2 nsp13 [4]): > 30 µM
remaining activity at 30 µM (SARS-CoV-2 nsp13 [4]): 68.7%
IC50 (SARS-CoV-2 nsp13 [5]): > 30 µM
remaining activity at 30 µM (SARS-CoV-2 nsp13 [5]): 63.9%

Cc1ccc(-n2cc(C(=O)/C=C(\O)C(=O)O)c3ccccc32)cc1 [Compound 7b]
Activity in enzyme assay IC50 ATPase BSA-TCEP (SARS-CoV-2 nsp13 [4]): no activity
IC50 (SARS-CoV-2 nsp13 [4]): > 30 µM
remaining activity at 30 µM (SARS-CoV-2 nsp13 [4]): 70.8%
IC50 (SARS-CoV-2 nsp13 [5]): 1.27 ± 0.29 µM

CC(C)c1ccc(-n2cc(C(=O)/C=C(\O)C(=O)O)c3ccccc32)cc1 [Compound 7c]
CC50 (in vitro): > 100 µM
Activity in enzyme assay IC50 ATPase BSA-TCEP (SARS-CoV-2 nsp13 [4]): no activity
IC50 (SARS-CoV-2 nsp13 [4]): > 30 µM
remaining activity at 30 µM (SARS-CoV-2 nsp13 [4]): 63.9%
IC50 (SARS-CoV-2 nsp13 [5]): 0.7 ± 0.13 µM
SI = CC50/EC50 (SARS-CoV-2 [6]): >12
EC50 (SARS-CoV-2 [6]): 8.1 ± 1.37 µM

O=C(O)/C(O)=C/C(=O)c1cn(-c2ccccc2)c2ccccc12 [Compound 7d]
IC50 (SARS-CoV-2 nsp13 [4]): > 30 µM
remaining activity at 30 µM (SARS-CoV-2 nsp13 [4]): 102%
IC50 (SARS-CoV-2 nsp13 [5]): > 30 µM
remaining activity at 30 µM (SARS-CoV-2 nsp13 [5]): 75.1%

O=C(O)/C(O)=C/C(=O)c1cn(-c2ccc(F)cc2)c2ccccc12 [Compound 7e]
Activity in enzyme assay IC50 ATPase BSA-TCEP (SARS-CoV-2 nsp13 [4]): no activity
IC50 (SARS-CoV-2 nsp13 [4]): > 30 µM
remaining activity at 30 µM (SARS-CoV-2 nsp13 [4]): 99.3%
IC50 (SARS-CoV-2 nsp13 [5]): 7.03 ± 1.94 µM

CCOC(=O)/C(O)=C/C(=O)c1cn(-c2ccc(OC)cc2)c2ccccc12 [Compound 8a]
IC50 (SARS-CoV-2 nsp13 [4]): 19.06 ± 0.14 µM
IC50 (SARS-CoV-2 nsp13 [5]): 18.8 ± 0.22 µM

CCOC(=O)/C(O)=C/C(=O)c1cn(-c2ccc(C)cc2)c2ccccc12 [Compound 8b]
IC50 (SARS-CoV-2 nsp13 [4]): 18.6 ± 1.14 µM
IC50 (SARS-CoV-2 nsp13 [5]): 17.5 ± 1.37 µM

CCOC(=O)/C(O)=C/C(=O)c1cn(-c2ccc(C(C)C)cc2)c2ccccc12 [Compound 8c]
IC50 (SARS-CoV-2 nsp13 [4]): 15.7 ± 0.1 µM
IC50 (SARS-CoV-2 nsp13 [5]): 8.04 ± 2.1 µM

CCOC(=O)/C(O)=C/C(=O)c1cn(-c2ccccc2)c2ccccc12 [Compound 8d]
IC50 (SARS-CoV-2 nsp13 [4]): 11.3 ± 0.89 µM
IC50 (SARS-CoV-2 nsp13 [5]): 13.3 ± 3.45 µM

CCOC(=O)/C(O)=C/C(=O)c1cn(-c2ccc(F)cc2)c2ccccc12 [Compound 8e]
IC50 (SARS-CoV-2 nsp13 [4]): 16.4 ± 3.1 µM
IC50 (SARS-CoV-2 nsp13 [5]): 12.9 ± 0.59 µM

C=CCn1c(S)nnc1CSc1ccccc1[N+](=O)[O-] [SSYA10‐001]
EC50 (SARS-CoV-2 [8]): 81 µM
IC50 (SARS-CoV-2 nsp13 [9]): 7.5 µM

CC(C)=CCc1c(O)cc(O)c2c(=O)cc(-c3ccc(O)cc3)oc12 [licoflavone C]
EC50 (SARS-CoV-2 [8]): > 100 µM
